For assay [1], the target named is CDK3/Cyclin E (Homo sapiens) (UniProt P24864+Q00526). Briefly: Inhibition of recombinant full-length human CDK3/Cyclin E at 1 uM using histone H1 as substrate after 40 mins in presence of [gamma-33P]ATP by scintillation counting method. It counts as protein-complex assay.
In assay [2] the target is Tyrosine-protein kinase Blk (Homo sapiens) (UniProt P51451). The assay is described as follows: Inhibition of recombinant full-length human Blk at 1 uM using poly(Glu,Tyr) 4:1 as substrate after 40 mins in presence of [gamma-33P]ATP by scintillation counting method.
Assay [3] deals with Serine/threonine-protein kinase B-raf (Homo sapiens) (UniProt P15056). The assay is described as follows: Inhibition of recombinant human B-raf (416 to end residues) at 1 uM using myelin basic protein as substrate after 40 mins in presence of [gamma-33P]ATP by scintillation counting method.
Assay [4] has as its target Calcium/calmodulin-dependent protein kinase type IV (Homo sapiens) (UniProt Q16566). The assay is described as follows: Inhibition of recombinant full-length human CAMK4 at 1 uM using […] after 40 mins in presence of [gamma-33P]ATP by scintillation counting method.
Assay [5] deals with Casein kinase I isoform gamma-1 (Homo sapiens) (UniProt Q9HCP0). Briefly: Inhibition of recombinant human CK1gamma1 (25 to 355 residues) at 1 uM using KRRRALS(p)VASLPGL as substrate after 40 mins in presence of [gamma-33P]ATP by scintillation counting method.
Assay [6] relates to Mast/stem cell growth factor receptor Kit (Homo sapiens), P10721 [D816V]. Briefly: Inhibition of recombinant human cKit D816V mutant (544 to end residues) at 1 uM using poly(Glu,Tyr) 4:1 as substrate after 40 mins in presence of [gamma-33P]ATP by scintillation counting method.
The target of assay [7] is Ephrin type-A receptor 1 (Homo sapiens) (UniProt P21709). The assay is described as follows: Inhibition of recombinant human EPHA1 ([…]) at 1 uM using KKKSPGEYVNIEFG as substrate after 40 mins in presence of [gamma-33P]ATP by scintillation counting method.
The target of assay [8] is Ephrin type-A receptor 3 (Homo sapiens) (UniProt P29320). Briefly: Inhibition of recombinant human EPHA3 (578 to end residues) at 1 uM using poly(Glu,Tyr) 4:1 as substrate after 40 mins in presence of [gamma-33P]ATP by scintillation counting method.
Assay [9] concerns the target Tyrosine-protein kinase Fes/Fps (Homo sapiens) (UniProt P07332). The assay is described as follows: Inhibition of recombinant human FES (2 to end residues) at 1 uM using poly(Glu,Tyr) 4:1 as substrate after 40 mins in presence of [gamma-33P]ATP by scintillation counting method.
The target in assay [10] is Receptor-type tyrosine-protein kinase FLT3 (Homo sapiens) (UniProt P36888). The assay is described as follows: Inhibition of recombinant human Flt3 (564 to end residues) at 1 uM using EAIYAAPFAKKK as substrate after 40 mins in presence of [gamma-33P]ATP by scintillation counting method.
The target in assay [11] is Tyrosine-protein kinase HCK (Homo sapiens) (UniProt P08631). The assay is described as follows: Inhibition of recombinant human activated Hck (230 to 497 residues) at 1 uM using GGMEDIYFEFMGGKKK as substrate after 40 mins in presence of [gamma-33P]ATP by scintillation counting method.
In assay [12] the target is Tyrosine-protein kinase Lck (Homo sapiens) (UniProt P06239). The assay is described as follows: Inhibition of recombinant full-length human activated Lck at 1 uM using KVEKIGEGTYGVVYK as substrate after 40 mins in presence of [gamma-33P]ATP by scintillation counting method.
The target of assay [13] is MAP/microtubule affinity-regulating kinase 3 (Homo sapiens) (UniProt P27448). The assay is described as follows: Inhibition of recombinant full-length human MARK3 at 1 uM using KKKVSRSGLYRSPSMPENLNRPR as substrate after 40 mins in presence of [gamma-33P]ATP by scintillation counting method.
In assay [14] the target is Serine/threonine-protein kinase NLK (Homo sapiens) (UniProt Q9UBE8). The assay is described as follows: Inhibition of recombinant human NLK (121 to end residues) at 1 uM using myelin basic protein as substrate after 40 mins in presence of [gamma-33P]ATP by scintillation counting method.
Assay [15] has as its target PAS domain-containing serine/threonine-protein kinase (Homo sapiens) (UniProt Q96RG2). Briefly: Inhibition of recombinant human PASK (995 to end residues) at 1 uM using KKLNRTLSFAEPG as substrate after 40 mins in presence of [gamma-33P]ATP by scintillation counting method.
Assay [16] addresses PI3-kinase p110-alpha/p85-alpha (Homo sapiens) (UniProt P27986+P42336). The assay is described as follows: Inhibition of recombinant full-length human p110a/p85a at 1 uM using phosphatidylinositol 4,5-bisphosphate as substrate after 40 mins in presence of [gamma-33P]ATP by scintillation counting method. It counts as protein-complex assay.
Assay [17] has as its target Phosphatidylinositol 4-phosphate 5-kinase type-1 gamma (Homo sapiens) (UniProt O60331). The assay is described as follows: Inhibition of recombinant full-length human PIP5K1gamma at 1 uM using phosphatidylinositol 4-phosphate/phosphatidylserine as substrate after 40 mins in presence of [gamma-33P]ATP by scintillation counting method.
The target of assay [18] is Protein kinase C beta type (Homo sapiens) (UniProt P05771). The assay is described as follows: Inhibition of recombinant human PKCbeta2 (2 to end residues) at 1 uM using histone H1 as substrate after 40 mins in presence of [gamma-33P]ATP by scintillation counting method.
In assay [19] the target is Serine/threonine-protein kinase D3 (Homo sapiens) (UniProt O94806). Briefly: Inhibition of recombinant full-length human PKD3 at 1 uM using KKLRRTLSVA as substrate after 40 mins in presence of [gamma-33P]ATP by scintillation counting method.
Assay [20] relates to Proto-oncogene tyrosine-protein kinase receptor Ret (Homo sapiens), P07949 [V804L]. Briefly: Inhibition of recombinant human RET V804L mutant (658 to end residues) at 1 uM using KKKVSRSGLYRSPSMPENLNRPR as substrate after 40 mins in presence of [gamma-33P]ATP by scintillation counting method.
Assay [21] addresses SRSF protein kinase 2 (Homo sapiens) (UniProt P78362). Briefly: Inhibition of recombinant human SRPK2 (46 to end residues) at 1 uM using RSRSRSRSRSRSRSR as substrate after 40 mins in presence of [gamma-33P]ATP by scintillation counting method.
Assay [22] has as its target Tau-tubulin kinase 2 (Homo sapiens) (UniProt Q6IQ55). Briefly: Inhibition of recombinant human TTBK2 (1 to 331 residues) at 1 uM using casein as substrate after 40 mins in presence of [gamma-33P]ATP by scintillation counting method.
Assay [23] addresses Wee1-like protein kinase 2 (Homo sapiens) (UniProt P0C1S8). The assay is described as follows: Inhibition of recombinant full-length human Wee1B at 1 uM using LSNLYHQGKFLQTFCGSPLYRRR as substrate after 120 mins in presence of [gamma-33P]ATP by scintillation counting method.
Assay [24] has as its target Mitogen-activated protein kinase kinase kinase 20 (Homo sapiens) (UniProt Q9NYL2). Briefly: Inhibition of recombinant full-length human ZAK at 1 uM using myelin basic protein as substrate after 40 mins in presence of [gamma-33P]ATP by scintillation counting method.

As a reminder, the inhibition is the change of the read-out against control, counted positive when it falls.

Sequence of CDK3/Cyclin E (Homo sapiens) (P24864 whole entry, looked up): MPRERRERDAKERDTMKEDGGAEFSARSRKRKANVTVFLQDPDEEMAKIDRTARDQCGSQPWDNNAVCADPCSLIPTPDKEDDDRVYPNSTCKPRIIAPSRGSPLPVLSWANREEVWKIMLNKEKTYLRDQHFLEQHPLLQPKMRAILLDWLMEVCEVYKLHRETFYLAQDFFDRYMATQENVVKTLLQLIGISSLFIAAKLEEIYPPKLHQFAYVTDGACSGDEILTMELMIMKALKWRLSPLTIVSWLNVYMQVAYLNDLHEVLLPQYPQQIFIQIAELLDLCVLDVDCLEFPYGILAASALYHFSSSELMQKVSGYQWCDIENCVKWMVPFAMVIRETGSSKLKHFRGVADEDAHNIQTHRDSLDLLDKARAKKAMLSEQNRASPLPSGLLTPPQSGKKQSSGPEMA
Sequence of CDK3/Cyclin E (Homo sapiens) (Q00526 whole entry, looked up): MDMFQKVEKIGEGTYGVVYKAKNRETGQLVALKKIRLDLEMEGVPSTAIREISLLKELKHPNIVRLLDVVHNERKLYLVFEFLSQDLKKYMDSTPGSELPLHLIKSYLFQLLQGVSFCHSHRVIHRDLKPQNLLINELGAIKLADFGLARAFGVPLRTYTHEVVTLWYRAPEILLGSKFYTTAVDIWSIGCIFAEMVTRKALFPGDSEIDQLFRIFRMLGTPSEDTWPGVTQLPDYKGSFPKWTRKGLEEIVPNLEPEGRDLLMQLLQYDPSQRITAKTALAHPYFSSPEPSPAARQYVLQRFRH
Sequence of Wee1-like protein kinase 2 (Homo sapiens) (P0C1S8 whole entry, looked up): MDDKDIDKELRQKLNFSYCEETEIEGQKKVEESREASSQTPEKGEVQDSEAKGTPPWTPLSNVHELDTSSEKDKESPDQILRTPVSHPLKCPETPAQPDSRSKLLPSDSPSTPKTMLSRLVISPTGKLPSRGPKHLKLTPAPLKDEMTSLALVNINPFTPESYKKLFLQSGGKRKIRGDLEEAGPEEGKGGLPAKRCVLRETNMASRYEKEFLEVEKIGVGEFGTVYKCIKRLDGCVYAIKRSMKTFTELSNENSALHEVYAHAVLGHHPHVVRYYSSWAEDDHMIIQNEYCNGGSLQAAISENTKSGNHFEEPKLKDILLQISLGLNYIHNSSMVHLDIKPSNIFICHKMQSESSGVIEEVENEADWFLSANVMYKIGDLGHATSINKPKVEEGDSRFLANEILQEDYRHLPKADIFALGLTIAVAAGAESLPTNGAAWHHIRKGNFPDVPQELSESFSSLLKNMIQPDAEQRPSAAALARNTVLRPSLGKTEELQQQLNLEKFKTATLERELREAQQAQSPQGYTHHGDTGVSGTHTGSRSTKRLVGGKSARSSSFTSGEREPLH
Sequence of MAP/microtubule affinity-regulating kinase 3 (Homo sapiens) (P27448 whole entry, looked up): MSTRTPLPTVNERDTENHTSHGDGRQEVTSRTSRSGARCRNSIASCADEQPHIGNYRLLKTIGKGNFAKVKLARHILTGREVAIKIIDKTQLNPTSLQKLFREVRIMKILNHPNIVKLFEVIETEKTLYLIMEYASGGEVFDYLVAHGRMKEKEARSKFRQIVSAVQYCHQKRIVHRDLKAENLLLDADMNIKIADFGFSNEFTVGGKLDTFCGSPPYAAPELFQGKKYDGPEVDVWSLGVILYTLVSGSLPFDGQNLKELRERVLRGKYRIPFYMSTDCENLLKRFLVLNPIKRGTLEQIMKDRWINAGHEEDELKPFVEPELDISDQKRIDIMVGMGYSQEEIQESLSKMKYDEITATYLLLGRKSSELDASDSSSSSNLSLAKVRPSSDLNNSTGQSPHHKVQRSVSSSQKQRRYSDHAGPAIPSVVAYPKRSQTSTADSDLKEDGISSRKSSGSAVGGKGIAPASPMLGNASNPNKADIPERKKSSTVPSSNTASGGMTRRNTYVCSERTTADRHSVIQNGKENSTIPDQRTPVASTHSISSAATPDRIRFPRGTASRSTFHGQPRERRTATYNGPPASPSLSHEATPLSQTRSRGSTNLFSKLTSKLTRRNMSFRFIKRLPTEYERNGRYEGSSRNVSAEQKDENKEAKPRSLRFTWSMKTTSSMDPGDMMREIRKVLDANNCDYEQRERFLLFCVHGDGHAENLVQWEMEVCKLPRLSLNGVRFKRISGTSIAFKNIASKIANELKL
Sequence of Ephrin type-A receptor 3 (Homo sapiens) (P29320 whole entry): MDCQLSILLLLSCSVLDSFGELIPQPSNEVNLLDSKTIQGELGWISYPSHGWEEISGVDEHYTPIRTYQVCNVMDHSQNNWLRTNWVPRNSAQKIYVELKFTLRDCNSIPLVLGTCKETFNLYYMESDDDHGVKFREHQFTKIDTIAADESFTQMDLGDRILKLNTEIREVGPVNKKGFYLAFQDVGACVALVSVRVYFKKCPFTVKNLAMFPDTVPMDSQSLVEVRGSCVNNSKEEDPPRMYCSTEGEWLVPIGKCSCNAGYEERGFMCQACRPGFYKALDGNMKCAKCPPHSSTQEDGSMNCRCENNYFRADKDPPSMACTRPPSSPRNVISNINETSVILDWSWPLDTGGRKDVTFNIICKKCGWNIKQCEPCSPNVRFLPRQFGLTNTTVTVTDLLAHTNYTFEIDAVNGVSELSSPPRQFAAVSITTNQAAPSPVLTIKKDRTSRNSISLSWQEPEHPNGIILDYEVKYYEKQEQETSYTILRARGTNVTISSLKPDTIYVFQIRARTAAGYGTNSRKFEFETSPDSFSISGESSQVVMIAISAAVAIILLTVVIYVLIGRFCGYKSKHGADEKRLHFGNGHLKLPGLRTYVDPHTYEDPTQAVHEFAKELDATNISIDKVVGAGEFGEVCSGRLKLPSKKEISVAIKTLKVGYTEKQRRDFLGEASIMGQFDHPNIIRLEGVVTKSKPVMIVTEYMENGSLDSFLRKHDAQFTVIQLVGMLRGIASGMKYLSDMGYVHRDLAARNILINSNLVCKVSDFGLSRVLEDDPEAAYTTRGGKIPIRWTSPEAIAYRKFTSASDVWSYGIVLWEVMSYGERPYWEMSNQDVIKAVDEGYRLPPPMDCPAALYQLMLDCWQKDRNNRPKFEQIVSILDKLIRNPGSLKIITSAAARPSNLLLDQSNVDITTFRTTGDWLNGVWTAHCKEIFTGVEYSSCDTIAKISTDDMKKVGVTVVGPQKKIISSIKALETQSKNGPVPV
Sequence of Tyrosine-protein kinase Fes/Fps (Homo sapiens) (P07332 whole entry): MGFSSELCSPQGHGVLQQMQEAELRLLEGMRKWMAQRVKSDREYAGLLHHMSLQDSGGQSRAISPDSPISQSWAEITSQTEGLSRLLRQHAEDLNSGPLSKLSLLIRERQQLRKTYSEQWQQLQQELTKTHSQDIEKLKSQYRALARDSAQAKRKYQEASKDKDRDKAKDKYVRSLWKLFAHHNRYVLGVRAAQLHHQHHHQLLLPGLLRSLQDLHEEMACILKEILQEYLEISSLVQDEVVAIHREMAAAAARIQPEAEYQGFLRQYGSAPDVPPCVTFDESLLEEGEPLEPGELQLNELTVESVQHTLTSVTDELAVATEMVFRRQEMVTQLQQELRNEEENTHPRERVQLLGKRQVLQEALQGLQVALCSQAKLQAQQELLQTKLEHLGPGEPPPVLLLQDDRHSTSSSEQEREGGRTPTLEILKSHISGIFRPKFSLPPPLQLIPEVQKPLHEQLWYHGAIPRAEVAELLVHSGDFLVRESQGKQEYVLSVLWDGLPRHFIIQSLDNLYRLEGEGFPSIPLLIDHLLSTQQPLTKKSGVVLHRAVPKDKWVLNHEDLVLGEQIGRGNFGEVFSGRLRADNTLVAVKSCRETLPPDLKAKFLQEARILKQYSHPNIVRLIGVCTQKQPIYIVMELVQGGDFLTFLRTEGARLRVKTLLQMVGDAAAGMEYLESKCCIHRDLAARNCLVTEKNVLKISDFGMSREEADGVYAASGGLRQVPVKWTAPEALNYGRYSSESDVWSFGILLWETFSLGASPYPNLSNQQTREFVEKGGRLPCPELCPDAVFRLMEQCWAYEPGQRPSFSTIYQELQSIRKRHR
Sequence of Mitogen-activated protein kinase kinase kinase 20 (Homo sapiens) (Q9NYL2 2-800 limits assumed): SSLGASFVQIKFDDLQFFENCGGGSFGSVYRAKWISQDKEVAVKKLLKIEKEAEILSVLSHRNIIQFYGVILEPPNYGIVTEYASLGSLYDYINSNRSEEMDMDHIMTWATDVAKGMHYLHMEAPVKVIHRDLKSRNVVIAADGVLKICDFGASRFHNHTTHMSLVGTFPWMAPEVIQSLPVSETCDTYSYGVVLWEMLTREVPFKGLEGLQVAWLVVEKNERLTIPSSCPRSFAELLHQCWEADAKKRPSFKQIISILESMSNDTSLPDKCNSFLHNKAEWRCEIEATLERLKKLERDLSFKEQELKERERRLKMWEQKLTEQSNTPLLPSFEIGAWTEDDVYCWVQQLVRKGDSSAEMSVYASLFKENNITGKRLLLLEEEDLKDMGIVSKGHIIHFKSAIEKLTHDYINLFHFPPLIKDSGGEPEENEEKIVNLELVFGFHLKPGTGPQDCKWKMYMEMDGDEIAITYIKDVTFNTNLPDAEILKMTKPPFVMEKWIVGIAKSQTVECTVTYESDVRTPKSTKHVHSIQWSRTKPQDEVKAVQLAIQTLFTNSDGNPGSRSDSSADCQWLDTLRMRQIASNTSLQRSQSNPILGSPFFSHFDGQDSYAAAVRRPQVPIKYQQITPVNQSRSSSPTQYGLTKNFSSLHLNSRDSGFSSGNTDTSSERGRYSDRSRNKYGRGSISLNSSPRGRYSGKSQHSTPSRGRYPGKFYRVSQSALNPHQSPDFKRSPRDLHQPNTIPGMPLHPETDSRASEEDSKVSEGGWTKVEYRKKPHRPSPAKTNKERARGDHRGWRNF

With `CS(=O)(=O)c1ccc(-n2nc(-c3cnc4[nH]ccc4c3)c3c(N)ncnc32)cc1`, the inhibition in assay [1] is -6%; in [2] it was 40%; in assay [3] it was 89%; in assay [4] it was 8%; in [5], 4%; in assay [6], -2%. The inhibition in assay [7] was 24%; in [8], 7%; in assay [9] it was -5%; in [10], 16%; in [11], 93%; in assay [12], 38%. The inhibition in assay [13] was 4%; in assay [14], 18%; in assay [15] it was -6%; in assay [16], 6%; in assay [17] it was 3%; in assay [18], -4%. The inhibition is 10% in assay [19]; 20% in assay [20]; 0% in [21]; 4% in [22]; -3% in assay [23]; 17% in [24].
